Data published in patent US10501459B2, “Substituted imidazo[1,2-a]pyridines as bromodomain inhibitors” (NEOMED Institute, priority 2015, dated 2019).

How the values were obtained:
BRD4(BD1) = target: T1, BRD4(BD1) (Homo sapiens, UniProt O60885); test: In vitro bromodomain inhibition, BRD4(BD1) / biotinylated H4-tetraacetyl peptide AlphaLISA; format: binding; conditions: His-tagged BRD4 BD1 200 nM, H4 peptide 200 nM, read-out: BRD4α (IC50)
T1 construct: purchased BPS Bioscience
Protocol: a) In Vitro Bromodomain Inhibition
To measure activity of bromodomain inhibitors, a His-epitope tagged BRD4 BD149-170 is purchased from BPS Bioscience. BRD4 binding and inhibition is assessed by monitoring the engagement of biotinylated H4-tetraacetyl peptide (H4K5/8/12/16; AnaSpec #64989-025) with the target using the AlphaLISA technology (Perkin-Elmer). Specifically, in a 384 well OptiPlate, BRD4(BD1) (200 nM final) is pre-incubated with either DMSO (final 1.0% DMSO) or a compound dilution series in DMSO. All reagents are diluted in assay buffer containing 50 mM HEPES (pH 7.4), 100 mM NaCl, 0.1% (w/v) BSA, and 0.05% (w/v) CHAPS. After a 30 minute incubation at room temperature, H4 peptide is added (200 nM final) and the reaction is incubated an additional 30 minutes at room temperature. Alpha streptavidin donor beads and AlphaLISA nickel chelate acceptor beads are then added to a final concentration of 10 μg/mL each. After one hour, equilibration plates are read on an Envision instrument and IC50s calculated using a four parameter non-linear curve fit.

[1] = test system: human C-Myc gene transcription in MV-4-11 cells; test: Transcription of human C-Myc in human leukemic MV-4-11 cells (QuantiGene 2.0); format: cell-based; conditions: inhibition of C-Myc mRNA, 4 hours treatment
Protocol: b) Transcription of Human C-Myc in Human Leukemic MV-4-11 Cells:
The effect of compounds on transcription of human C-Myc gene is monitored in human B-myelomonocytic leukemia cell line MV-4-11 (from American Type Culture Collection (ATCC), Manassas, Va., USA) using QuantiGene 2.0 assay kit (Affymetrix, Santa Clara, Calif., USA).
Typically, 8,000 MV-4-11 cells are plated in sterile 96-well plates (Costar #3598 from Fisher Scientific Canada, Ottawa, Ontario, Canada) in Iscove's medium supplemented with 10% fetal bovine serum, glutamine (2 mM), and penicillin (100 I.U.) and streptomycin (100 μg/mL) (all from Wisent Inc., St. Bruno, Quebec, Canada). Compounds are dissolved in DMSO at 30 mM. A series of 1:3 dilutions are first made in DMSO, and further […] dilutions are made in serum-containing cell culture media. The final concentration of DMSO is […] in cell culture media. After cells are treated with various concentrations of test compound for 4 hours, cells are lysed using Quantigene 2.0 sample processing kit (#QS0100). C-Myc mRNA is detected using a QuantiGene 2.0 assay kit (#QS0009) with gene-specific probe to human C-Myc (#SA-50182) following the manufacturer's recommendations. Luminescene signals are read on Flexstation II microplate reader (Molecular Devices, Sunnyvale, Calif., USA). Percentage of inhibition of C-Myc transcription is analyzed using EXCEL (2010 version).

| Compound | IC50 (BRD4(BD1)) | IC50 ([1]; Homo sapiens, MV4-11, 4 h) | IC50 [1] |
| --- | --- | --- | --- |
| Cc1cc(-c2ccc3ncc(CN4CCCCC4)n3c2)cn(C)c1=O [Compound 8, 1,3-dimethyl-5-[3-(1-piperidylmethyl)imidazo[1,2-a]pyridin-6-yl]pyridin-2-one] | 195 nM | 844 nM |  |
| Cc1cc(-c2ccc3ncc(COC4CCCC4)n3c2)cn(C)c1=O [Compound 9, 5-[3-(cyclopentoxymethyl)imidazo[1,2-a]pyridin-6-yl]-1,3-dimethyl-pyridin-2-one] | 153 nM | 152 nM |  |
| Cc1cc(-c2ccc3ncc(Cc4ccc(Cl)cc4)n3c2)cn(C)c1=O [Compound 3, 5-[3-[(4-chlorophenyl)methyl]imidazo[1,2-a]pyridin-6-yl]-1,3-dimethyl-pyridin-2-one] | 143 nM | 86.3 nM |  |
| Cc1cc(-c2ccc3ncc(CNc4ccccc4)n3c2)cn(C)c1=O [Compound 10, 5-[3-(anilinomethyl)imidazo[1,2-a]pyridin-6-yl]-1,3-dimethyl-pyridin-2-one] | 318 nM | 837 nM |  |
| Cc1cc(-c2ccc3ncc(Cc4ccc(F)cc4)n3c2)cn(C)c1=O [Compound 2, 5-[3-[(4-fluorophenyl)methyl]imidazo[1,2-a]pyridin-6-yl]-1,3-dimethyl-pyridin-2-one] | 99.5 nM | 59.2 nM |  |
| Cc1cc(-c2ccc3ncc(Cc4ccccc4)n3c2)cn(C)c1=O [Compound 1, 5-(3-benzylimidazo[1,2-a]pyridin-6-yl)-1,3-dimethyl-pyridin-2-one] | 122 nM | 58 nM |  |
| Cc1cc(-c2ccc3ncc(S(=O)(=O)N4CCC[C@H]4C)n3c2)cn(C)c1=O [Compound 45, (R)-1,3-dimethyl-5-(3-((2-methylpyrrolidin-1-yl)sulfonyl)imidazo[1,2-a]pyridin-6-yl)pyridin-2(1H)-one] |  | 507 nM |  |
| COC(c1ccccc1)c1cnc2ccc(-c3cc(C)c(=O)n(C)c3)cn12 (centres unmarked) [Compound 6, 5-[3-[methoxy(phenyl)methyl]imidazo[1,2-a]pyridin-6-yl]-1,3-dimethyl-pyridin-2-one] |  |  | 91.3 nM |
| Cc1cc(-c2ccc3ncc(COC4CCC4)n3c2)cn(C)c1=O [Compound 25, 5-[3-(cyclobutoxymethyl)imidazo[1,2-a]pyridin-6-yl]-1,3-dimethyl-pyridin-2-one] |  | 174 nM |  |
| COc1ccc(Cc2cnc3ccc(-c4cc(C)c(=O)n(C)c4)cn23)cc1 [Compound 4, 5-[3-[(4-methoxyphenyl)methyl]imidazo[1,2-a]pyridin-6-yl]-1,3-dimethyl-pyridin-2-one] | 313 nM | 276 nM |  |
| Cc1cc(-c2ccc3ncc(CN4CCC(F)(F)CC4)n3c2)cn(C)c1=O [Compound 20, 5-[3-[(4,4-difluoro-1-piperidyl)methyl]imidazo[1,2-a]pyridin-6-yl]-1,3-dimethyl-pyridin-2-one] |  | 112 nM |  |
| Cc1cc(-c2ccc3ncc(S(=O)(=O)NC4CCCOC4)n3c2)cn(C)c1=O (centres unmarked) [Compound 44, 6-(1,5-dimethyl-6-oxo-1,6-dihydropyridin-3-yl)-N-(tetrahydro-2H-pyran-3-yl)imidazo[1,2-a]pyridine-3-sulfonamide] |  |  | 597 nM |
| Cc1cc(-c2ccc3ncc(Cc4cccc(F)c4)n3c2)cn(C)c1=O [Compound 5, 5-[3-[(3-fluorophenyl)methyl]imidazo[1,2-a]pyridin-6-yl]-1,3-dimethyl-pyridin-2-one] | 113 nM | 93.9 nM |  |
| CO[C@@H]1CCN(S(=O)(=O)c2cnc3ccc(-c4cc(C)c(=O)n(C)c4)cn23)C1 [Compound 51, (R)-5-(3-((3-methoxypyrrolidin-1-yl)sulfonyl)imidazo [1,2-a]pyridin-6-yl)-1,3-dimethylpyridin-2(1H)-one] |  | 615 nM |  |
| Cc1cc(-c2ccc3ncc(NCC4CCCC4)n3c2)cn(C)c1=O [Compound 23, 5-[3-(cyclopentylmethylamino)imidazo[1,2-a]pyridin-6-yl]-1,3-dimethyl-pyridin-2-one] |  | 16.5 nM |  |
